The values below are quoted from earlier work in patent US20230025663A1, “NANOFORMULATION WITH DIVERSE FUNCTIONAL MOLECULES FROM TURMERIC AND PROCESS FOR PREPARATION OF THE SAME” (ZEROHARM SCIENCES PRIVATE LIMITED, priority 2021, published 2023).

The conditions of the series: in vivo.

Turning to `COc1cc(/C=C/C(=O)CC(=O)/C=C/c2ccc(O)c(OC)c2)ccc1O` [curcumin], the bioavailability is recorded as approximately 1%.
